Earlier results in publication PMC9475419 (RSC Advances, 2022).
“Also recorded” adds a separate entry of the source.

How the values were obtained:
[1] = cited from earlier work
[2] = 15 Pep1 per AuNP (3.6 nm); cited from earlier work

CGSTIYASYYESGHGC [Pep1]
structure and function of free peptide [1]: unstructured and non-functional | suppression of non-specific binding of AuNPs by Pep1 [2]: enough to suppress the non-specific binding surface of AuNPs; also recorded: could sufficiently suppress the non-specific binding of AuNPs
